Assay results reported in ChEMBL document CHEMBL5505992, “Novel membrane-targeting isoxanthohumol-amine conjugates for combating methicillin-resistant Staphylococcus aureus (MRSA) infections” (Eur J Med Chem, 2024).
Active and inactive are the calls of the source. No cut-off for these calls is given here.

Columns and labels:
Staphylococcus aureus [1] = test: Antibacterial activity against methicillin-resistant Staphylococcus aureus clinical isolate MRSA-20 measured after 16 to 18 hrs by CLSI method; assay type: functional; conditions: time 16-18 hrs
Staphylococcus aureus [2] = test: Antibacterial activity against Staphylococcus aureus ATCC 29213 measured after 16 to 18 hrs by CLSI method; assay type: functional; conditions: time 16-18 hrs
Cell membrane [3] = test: Induction of cell membrane permeability in methicillin-resistant Staphylococcus aureus clinical isolate MRSA-16 assessed as increase in damaged cells (Q2 region) at 4 ug/ml incubated for 2 hrs by SYTO 9 and PI staining based flow cytometry analysis (reference value: 0.91%); assay type: cell membranes; conditions: dose 4.0 µg/ml
Cell membrane [4] = test: Disruption of cell membrane integrity in methicillin-resistant Staphylococcus aureus clinical isolate MRSA-16 assessed as increase in red fluorescence at 2 ug/ml incubated for 4 hrs by DAPI and PI staining based confocal microscopy analysis; assay type: cell membranes; conditions: dose 2.0 µg/ml
Cell membrane [5] = test: Induction of cytoplasmic membrane depolarization in methicillin-resistant Staphylococcus aureus clinical isolate MRSA-16 assessed as fold increase in fluorescence intensity at 32 ug/ml measured every 2 mins for 20 mins by SYTOX green staining based analysis; assay type: cell membranes; conditions: dose 32.0 µg/ml
Cell membrane [6] = test: Disruption of cell membrane in methicillin-resistant Staphylococcus aureus clinical isolate MRSA-16 assessed as increase in intracellular DNA leakage incubated for 4 hrs by microspectrophotometer analysis; assay type: cell membranes
Cell membrane [7] = test: Induction of cell membrane permeability in methicillin-resistant Staphylococcus aureus clinical isolate MRSA-16 assessed as decrease in intact cells (Q3 region) at 32 ug/ml incubated for 2 hrs by SYTO 9 and PI staining based flow cytometry analysis (reference value: 99.07%); assay type: cell membranes; parameters: scale not given: the % may be the effect or the level left; conditions: dose 32.0 µg/ml
Cell membrane [8] = test: Induction of cell membrane permeability in methicillin-resistant Staphylococcus aureus clinical isolate MRSA-16 assessed as increase in damaged cells (Q2 region) at 8 ug/ml incubated for 2 hrs by SYTO 9 and PI staining based flow cytometry analysis (reference value: 0.91%); assay type: cell membranes; conditions: dose 8.0 µg/ml
Staphylococcus aureus [9] = test: Antibacterial activity against methicillin-resistant Staphylococcus aureus infected in Kunming mouse skin infection model assessed as reduction in number of bacterial cells at 4 to 8 mg/kg,sc measured after 24 hrs; assay type: functional, organism-based; conditions: dose 4-8 mg/kg
Staphylococcus aureus [10] = test: Induction of morphological changes in methicillin-resistant Staphylococcus aureus clinical isolate MRSA-16 assessed as appearance of uneven cell surface at 16 ug/ml incubated for 4 hrs by SEM analysis; assay type: functional, organism-based; conditions: dose 16.0 µg/ml
Staphylococcus aureus [11] = test: Bactericidal activity against Staphylococcus aureus ATCC 29213 assessed as bacterial killing at 8 times MIC measured within 0.5 to 1 hrs by time kill assay relative to control; assay type: functional; conditions: time 0.5-1 hrs
[12] = Toxicity in Kunming mouse assessed as histopathological abnormalities in heart at 10 mg/kg, sc measured after 24 hrs by H and E staining based analysis; assay type: organism-based; conditions: in vivo
[13] = Toxicity in Kunming mouse assessed as effect on lung at 10 mg/kg, sc measured after 24 hrs by H and E staining based analysis; assay type: organism-based; conditions: in vivo
[14] = Toxicity in Kunming mouse assessed as histopathological abnormalities in liver at 10 mg/kg, sc measured after 24 hrs by H and E staining based analysis; assay type: organism-based; conditions: in vivo
[15] = Toxicity in Kunming mouse assessed as histopathological abnormalities in kidney at 10 mg/kg, sc measured after 24 hrs by H and E staining based analysis; assay type: organism-based; conditions: in vivo
Cell membrane [16] = test: Induction of cell membrane permeability in methicillin-resistant Staphylococcus aureus clinical isolate MRSA-16 assessed as decrease in intact cells (Q3 region) at 64 ug/ml incubated for 2 hrs by SYTO 9 and PI staining based flow cytometry analysis (reference value: 99.07%); assay type: cell membranes; parameters: scale not given: the % may be the effect or the level left; conditions: dose 64.0 µg/ml
Cell membrane [17] = test: Induction of cell membrane depolarization in methicillin-resistant Staphylococcus aureus clinical isolate MRSA-16 assessed as increase in fluorescence intensity measured after 10 mins by DISC3(5) staining based analysis; assay type: cell membranes; conditions: dose 8-32 µg/ml
Cell membrane [18] = test: Induction of cytoplasmic membrane depolarization in methicillin-resistant Staphylococcus aureus clinical isolate MRSA-16 assessed as increase in fluorescence intensity at 8 to 32 ug/ml measured every 2 mins for 20 mins by SYTOX green staining based analysis; assay type: cell membranes; conditions: dose 8-32 µg/ml
[19] = Toxicity in Kunming mouse assessed as histopathological abnormalities in kidney at 4 to 8 mg/kg, sc measured after 24 hrs by H and E staining based analysis; assay type: organism-based; conditions: in vivo, dose 4-8 mg/kg
[20] = Toxicity in Kunming mouse assessed as histopathological abnormalities in lung at 4 to 8 mg/kg, sc measured after 24 hrs by H and E staining based analysis; assay type: organism-based; conditions: in vivo, dose 4-8 mg/kg
[21] = Toxicity in Kunming mouse assessed as histopathological abnormalities in heart at 4 to 8 mg/kg, sc measured after 24 hrs by H and E staining based analysis; assay type: organism-based; conditions: in vivo, dose 4-8 mg/kg
Staphylococcus aureus [22] = test: Antibacterial activity against methicillin-resistant Staphylococcus aureus clinical isolate MRSA-18 measured after 16 to 18 hrs by CLSI method; assay type: functional; conditions: time 16-18 hrs
Staphylococcus aureus [23] = test: Antibacterial activity against methicillin-resistant Staphylococcus aureus clinical isolate MRSA-11 measured after 16 to 18 hrs by CLSI method; assay type: functional; conditions: time 16-18 hrs
[24] = Toxicity in Kunming mouse assessed as histopathological abnormalities in liver at 4 to 8 mg/kg, sc measured after 24 hrs by H and E staining based analysis; assay type: organism-based; conditions: in vivo, dose 4-8 mg/kg
Staphylococcus aureus [25] = test: Antibacterial activity against methicillin-resistant Staphylococcus aureus infected in Kunming mouse skin infection model assessed as appearance of small number of infiltrated inflammatory cells in subcutaneous tissue at 8 mg/kg,sc measured after 24 hrs; assay type: functional, organism-based
[26] = Toxicity in Kunming mouse assessed as adverse effect at 5 to 10 mg/kg, sc measured after 24 hrs; assay type: organism-based; conditions: in vivo, dose 5-10 mg/kg
Staphylococcus aureus [27] = test: Antibacterial activity against methicillin-resistant Staphylococcus aureus infected in Kunming mouse skin infection model assessed as decrease in bacterial load at 4 mg/kg,sc measured after 24 hrs relative to control; assay type: functional; parameters: scale not given: the % may be the effect or the level left
Cell membrane [28] = test: Induction of cell membrane permeability in methicillin-resistant Staphylococcus aureus clinical isolate MRSA-16 assessed as decrease in intact cells (Q3 region) at 8 ug/ml incubated for 2 hrs by SYTO 9 and PI staining based flow cytometry analysis (reference value: 99.07%); assay type: cell membranes; parameters: scale not given: the % may be the effect or the level left; conditions: dose 8.0 µg/ml
Staphylococcus aureus [29] = test: Bactericidal activity against Staphylococcus aureus ATCC 29213 assessed as bacterial killing measured upto 8 hrs by time kill assay; assay type: functional, organism-based
[30] = Toxicity in Kunming mouse assessed as survival rate at 40 mg/kg, sc measured after 24 hrs relative to control; assay type: organism-based; conditions: in vivo
Staphylococcus aureus [31] = test: Antibacterial activity against methicillin-resistant Staphylococcus aureus clinical isolate MRSA-13 measured after 16 to 18 hrs by CLSI method; assay type: functional; conditions: time 16-18 hrs
Staphylococcus aureus [32] = test: Antibacterial activity against methicillin-resistant Staphylococcus aureus infected in Kunming mouse skin infection model assessed as smooth dorsal skin at 8 mg/kg,sc measured after 24 hrs; assay type: functional, organism-based
Staphylococcus aureus [33] = test: Bactericidal activity against methicillin-resistant Staphylococcus aureus incubated with 3 to 6 hrs compound treated plasma; assay type: functional; conditions: time 3-6 hrs
Cell membrane [34] = test: Induction of cell membrane permeability in methicillin-resistant Staphylococcus aureus clinical isolate MRSA-16 assessed as increase in damaged cells (Q2 region) at 16 ug/ml incubated for 2 hrs by SYTO 9 and PI staining based flow cytometry analysis (reference value: 0.91%); assay type: cell membranes; conditions: dose 16.0 µg/ml

CCCC[N+](C)(CCCC)CCCCCOc1ccc(C2CC(=O)c3c(OC)cc(OCCCCC[N+](C)(CCCC)CCCC)c(CC=C(C)C)c3O2)cc1.[I-].[I-] (centres undefined) gave an MIC (Staphylococcus aureus [1]) of 0.5 µg/mL, an MIC (Staphylococcus aureus [2]) of 1 µg/mL and an Activity (Cell membrane [3]) of 38.6%. For the same molecule, the Activity (Cell membrane [4]) was “Active”, the fold change (FC) (Cell membrane [5]) was 7 and the Activity (Cell membrane [6]) was “Active”. For the same molecule, the Activity (Cell membrane [7]) was 0.02%, the Activity (Cell membrane [8]) was 57.4% and the Activity (Staphylococcus aureus [9]) was “Active”. For the same molecule, the Activity (Staphylococcus aureus [10]) was “Active”, the Activity (Staphylococcus aureus [11]) was 100% and the Activity [12] was “Non-Toxic”. For the same molecule, the Activity [13] was “Non-Toxic”, the Activity [14] was “Non-Toxic” and the Activity [15] was “Non-Toxic”. For the same molecule, the Activity (Cell membrane [16]) was 0%, the Activity (Cell membrane [17]) was “Dose-Dependent Effect” and the Activity (Cell membrane [18]) was “Active”. The Activity [19] was “Non-Toxic”, the Activity [20] was “Non-Toxic” and the Activity [21] was “Non-Toxic”. The MIC (Staphylococcus aureus [22]) was 0.5 µg/mL, the MIC (Staphylococcus aureus [23]) was 0.5 µg/mL and the Activity [24] was “Non-Toxic”. For the same molecule, the Activity (Staphylococcus aureus [25]) was “Active”, the Activity [26] was “Non-Toxic” and the Activity (Staphylococcus aureus [27]) was 99.86%. The Activity (Cell membrane [28]) was 39.7%, the Activity (Staphylococcus aureus [29]) was “Dose-Dependent Effect” and the survival at 24 h [30] was 80%. For the same molecule, the MIC (Staphylococcus aureus [31]) was 0.25 µg/mL, the Activity (Staphylococcus aureus [32]) was “Active” and the MBC (Staphylococcus aureus [33]) was 4 µg/mL. For the same molecule, the Activity (Cell membrane [34]) was 69.9%.
